Laboratory results: publication PMC6001238, “Iterative Chemical Engineering of Vancomycin Leads to Novel Vancomycin Analogs With a High in Vitro Therapeutic Index” (Frontiers in Microbiology, 2018)
≈ marks a conversion by molar mass, not a printed value.

Columns and labels:
MRSA KS2 = assay: MIC, broth microdilution, MRSA KS2; assay type: cell-based, Staphylococcus aureus; conditions: for MIC-fold improvement vs. vancomycin: MRSA KS2, ratio of MIC of vancomycin and MIC of analogue; for MIC: Staphylococcus aureus MRSA KS2, read-out: MIC
How it was run: (§1)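 Broth microdilution per CLSI; controls = ultrapure water, non-inoculated broth. One set: + vancomycin 10 μM final alongside test analogue/control drug.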

MRSA KS89 = assay: MIC, broth microdilution, MRSA KS89; assay type: cell-based, Staphylococcus aureus; conditions: for MIC-fold improvement vs. vancomycin: MRSA KS8, ratio of MIC of vancomycin and MIC of analogue; for MIC: Staphylococcus aureus MRSA KS8, read-out: MIC
How it was run: as §1

E. faecalis VRE 6 = assay: MIC, broth microdilution, vancomycin-resistant E. faecalis VRE 6 (VanA); assay type: cell-based, Enterococcus faecalis; conditions: for MIC: Enterococcus faecalis VRE 6 (vancomycin-resistant), read-out: MIC; for MIC-fold improvement vs. vancomycin: VRE 6, ratio of MIC of vancomycin and MIC of analogue
How it was run: as §1

MRSA KS6 = assay: MIC, broth microdilution, MRSA KS6; assay type: cell-based, Staphylococcus aureus; conditions: for MIC-fold improvement vs. vancomycin: MRSA KS6, ratio of MIC of vancomycin and MIC of analogue; for MIC: Staphylococcus aureus MRSA KS6, read-out: MIC
How it was run: as §1

E. faecalis VRE 53 = assay: MIC, broth microdilution, vancomycin-resistant E. faecalis VRE 53 (VanA); assay type: cell-based, Enterococcus faecalis; conditions: for MIC: Enterococcus faecalis VRE 53 (vancomycin-resistant), read-out: MIC; for MIC-fold improvement vs. vancomycin: VRE 53, ratio of MIC of vancomycin and MIC of analogue
How it was run: as §1

[1] = tested on: human cervix carcinoma (HeLa) cells; assay: Cytostatic activity, HeLa cell proliferation; assay type: cell-based; conditions: mean ± SD of three experiments; highest concentration tested 250 µM; 4 days; read-out: Toxicity (IC50) HeLa
How it was run: (§2)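 Readout: Coulter cell number after drug exposure at 37°C. Durations differ by line (L1210 2 days; CEM 3 days; HeLa 4 days). Stock suspension 300,000–500,000 cells/mL, diluted by mixing with compound. Endpoint: IC50 vs negative control.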

[2] = tested on: Murine leukemia (L1210) cells; assay: Cytostatic activity, L1210 cell proliferation; assay type: cell-based; conditions: mean ± SD of three experiments; highest concentration tested 250 µM; 2 days; read-out: Toxicity (IC50) L1210
How it was run: as §2

[3] = tested on: S. aureus VSSA (ATCC 6538); assay: MIC, broth microdilution, vancomycin-sensitive S. aureus (VSSA/MSSA, ATCC 6538); assay type: cell-based, Staphylococcus aureus; conditions: for MIC: Staphylococcus aureus VSSA, read-out: MIC; for MIC-fold improvement vs. vancomycin: VSSA, ratio of MIC of vancomycin and MIC of analogue
How it was run: as §1

E. faecalis VSE 1 = assay: MIC, broth microdilution, vancomycin-sensitive E. faecalis (VSE 1); assay type: cell-based, Enterococcus faecalis; conditions: for MIC: Enterococcus faecalis VSE 1 (vancomycin-sensitive), read-out: MIC; for MIC-fold improvement vs. vancomycin: VSE 1, ratio of MIC of vancomycin and MIC of analogue
How it was run: as §1

E. faecalis VRE 37 = assay: MIC, broth microdilution, vancomycin-resistant E. faecalis VRE 37 (VanA); assay type: cell-based, Enterococcus faecalis; conditions: for MIC: Enterococcus faecalis VRE 37 (vancomycin-resistant), read-out: MIC; for MIC-fold improvement vs. vancomycin: VRE 37, ratio of MIC of vancomycin and MIC of analogue
How it was run: as §1

S. aureus VRSA = assay: MIC, broth microdilution, vancomycin-resistant S. aureus (VRSA); assay type: cell-based, Staphylococcus aureus; conditions: for MIC: Staphylococcus aureus VRSA, read-out: MIC; for MIC-fold improvement vs. vancomycin: VRSA, ratio of MIC of vancomycin and MIC of analogue
How it was run: as §1

[4] = tested on: human T-lymphocyte (CEM) cells; assay: Cytostatic activity, CEM cell proliferation; assay type: cell-based; conditions: mean ± SD of three experiments; highest concentration tested 250 µM; 3 days; read-out: Toxicity (IC50) CEM
How it was run: as §2

[5] = tested on: L1210, CEM and HeLa cell lines; assay: Cytostatic activity, average or summary over L1210, CEM and HeLa; assay type: cell-based; conditions: average of L1210, CEM and HeLa; read-out: Toxicity (IC50) Average
How it was run: as §2

E. faecalis VRE 29 = assay: MIC, broth microdilution, vancomycin-resistant E. faecalis VRE 29 (VanA); assay type: cell-based, Enterococcus faecalis; conditions: for MIC: Enterococcus faecalis VRE 29 (vancomycin-resistant), read-out: MIC; for MIC-fold improvement vs. vancomycin: VRE 29, ratio of MIC of vancomycin and MIC of analogue
How it was run: as §1

MRSA KS1 = assay: MIC, broth microdilution, MRSA KS1; assay type: cell-based, Staphylococcus aureus; conditions: for MIC-fold improvement vs. vancomycin: MRSA KS1, ratio of MIC of vancomycin and MIC of analogue; for MIC: Staphylococcus aureus MRSA KS1, read-out: MIC
How it was run: as §1

S. aureus VISA/HIP5827 = assay: MIC, broth microdilution, vancomycin-intermediate S. aureus VISA HIP5827; assay type: cell-based, Staphylococcus aureus; conditions: for MIC: Staphylococcus aureus VISA/HIP5827, read-out: MIC; for MIC-fold improvement vs. vancomycin: VISA/HIP5827, ratio of MIC of vancomycin and MIC of analogue
How it was run: as §1

Row | Compound | MIC-fold improvement vs. vancomycin (MRSA KS2) | MIC (MRSA KS2) [µM] | MIC-fold improvement vs. vancomycin (MRSA KS89) | MIC (MRSA KS89) [µM] | MIC (E. faecalis VRE 6) [µM] | MIC-fold improvement vs. vancomycin (E. faecalis VRE 6) | MIC-fold improvement vs. vancomycin (MRSA KS6) | MIC (MRSA KS6) [µM] | MIC (E. faecalis VRE 53) [µM] | MIC-fold improvement vs. vancomycin (E. faecalis VRE 53) | IC50 [1] [µM] | IC50 [2] [µM] | MIC [3] [µM] | MIC-fold improvement vs. vancomycin [3] | MIC (E. faecalis VSE 1) [µM] | MIC-fold improvement vs. vancomycin (E. faecalis VSE 1) | MIC (E. faecalis VRE 37) [µM] | MIC-fold improvement vs. vancomycin (E. faecalis VRE 37) | MIC (S. aureus VRSA) [µM] | MIC-fold improvement vs. vancomycin (S. aureus VRSA) | further results
1 | CN[C@H](CC(C)C)C(=O)N[C@H]1C(=O)N[C@@H](CC(N)=O)C(=O)N[C@H]2C(=O)N[C@H]3C(=O)N[C@H](C(=O)N[C@H](C(=O)NCC(=O)Nc4ccc(OC)cc4)c4cc(O)cc(O)c4-c4cc3ccc4O)[C@H](O)c3ccc(c(Cl)c3)Oc3cc2cc(c3O[C@@H]2O[C@H](CO)[C@@H](O)[C@H](O)[C@H]2O[C@H]2C[C@](C)(N)[C@H](O)[C@H](C)O2)Oc2ccc(cc2Cl)[C@H]1O [Vanc-5] | 2 | 0.39 (≈ 0.628 µg/mL) | 1 | 0.78 (≈ 1.26 µg/mL) | 6.25 (≈ 10.1 µg/mL) | 32 | 1 | 0.78 (≈ 1.26 µg/mL) | 12.5 (≈ 20.1 µg/mL) | 32 | > 250 | > 250 | 0.39 (≈ 0.628 µg/mL) | 2 | 0.78 (≈ 1.26 µg/mL) | 2 | 12.5 (≈ 20.1 µg/mL) | 64 | 12.5 (≈ 20.1 µg/mL) | 8 | IC50 [4]: > 250 µM; IC50 [5]: > 250 µM; MIC (E. faecalis VRE 29): 12.5 µM (≈ 20.1 µg/mL); MIC-fold improvement vs. vancomycin (E. faecalis VRE 29): 32; MIC-fold improvement vs. vancomycin (MRSA KS1): 1; MIC (MRSA KS1): 0.78 µM (≈ 1.26 µg/mL); MIC (S. aureus VISA/HIP5827): 0.39 µM (≈ 0.628 µg/mL); MIC-fold improvement vs. vancomycin (S. aureus VISA/HIP5827): 16
2 | CNC(CC(C)C)C(=O)NC1C(=O)NC(CC(N)=O)C(=O)NC2C(=O)NC3C(=O)NC(C(=O)NC(C(=O)NCCCNC(=O)c4nc5ccccc5[nH]4)c4cc(O)cc(O)c4-c4cc3ccc4O)C(O)c3ccc(c(Cl)c3)Oc3cc2cc(c3OC2OC(CO)C(O)C(O)C2OC2CC(C)(N)C(O)C(C)O2)Oc2ccc(cc2Cl)C1O (stereo not shown) [Vanc-52] | 2 | 0.39 (≈ 0.643 µg/mL) | 1 | 0.78 (≈ 1.29 µg/mL) | 25 (≈ 41.2 µg/mL) | 8 | 1 | 0.78 (≈ 1.29 µg/mL) | 25 (≈ 41.2 µg/mL) | 16 | 104 ± 13 | ≥ 250 | 0.39 (≈ 0.643 µg/mL) | 2 | 0.78 (≈ 1.29 µg/mL) | 2 | 50 (≈ 82.5 µg/mL) | 8 | 1.56 (≈ 2.57 µg/mL) | 64 | IC50 [4]: > 250 µM; IC50 [5]: 201 µM; MIC (E. faecalis VRE 29): 50 µM (≈ 82.5 µg/mL); MIC-fold improvement vs. vancomycin (E. faecalis VRE 29): 8; MIC-fold improvement vs. vancomycin (MRSA KS1): 2; MIC (MRSA KS1): 0.39 µM (≈ 0.643 µg/mL); MIC (S. aureus VISA/HIP5827): 0.78 µM (≈ 1.29 µg/mL); MIC-fold improvement vs. vancomycin (S. aureus VISA/HIP5827): 8
3 | CN[C@H](CC(C)C)C(=O)N[C@H]1C(=O)N[C@@H](CC(N)=O)C(=O)N[C@H]2C(=O)N[C@H]3C(=O)N[C@H](C(=O)N[C@H](C(=O)NCC(=O)Nc4ccc([N+](=O)[O-])cc4)c4cc(O)cc(O)c4-c4cc3ccc4O)[C@H](O)c3ccc(c(Cl)c3)Oc3cc2cc(c3O[C@@H]2O[C@H](CO)[C@@H](O)[C@H](O)[C@H]2O[C@H]2C[C@](C)(N)[C@H](O)[C@H](C)O2)Oc2ccc(cc2Cl)[C@H]1O [Vanc-67] | 2 | 0.39 (≈ 0.634 µg/mL) | 1 | 0.78 (≈ 1.27 µg/mL) | 12.5 (≈ 20.3 µg/mL) | 16 | 1 | 0.78 (≈ 1.27 µg/mL) | 25 (≈ 40.7 µg/mL) | 16 | 52 ± 19 | ≥ 250 | 0.78 (≈ 1.27 µg/mL) | 1 | 0.78 (≈ 1.27 µg/mL) | 2 | 25 (≈ 40.7 µg/mL) | 16 | 6.25 (≈ 10.2 µg/mL) | 16 | IC50 [4]: 165 ± 32 µM; IC50 [5]: 156 µM; MIC (E. faecalis VRE 29): 25 µM (≈ 40.7 µg/mL); MIC-fold improvement vs. vancomycin (E. faecalis VRE 29): 16; MIC-fold improvement vs. vancomycin (MRSA KS1): 1; MIC (MRSA KS1): 0.78 µM (≈ 1.27 µg/mL); MIC (S. aureus VISA/HIP5827): 1.56 µM (≈ 2.54 µg/mL); MIC-fold improvement vs. vancomycin (S. aureus VISA/HIP5827): 4
4 | CNC(CC(C)C)C(=O)NC1C(=O)NC(CC(N)=O)C(=O)NC2C(=O)NC3C(=O)NC(C(=O)NC(C(=O)NCC(=O)Nc4ccc(-c5ccc(OC)cc5)cc4)c4cc(O)cc(O)c4-c4cc3ccc4O)C(O)c3ccc(c(Cl)c3)Oc3cc2cc(c3OC2OC(CO)C(O)C(O)C2OC2CC(C)(N)C(O)C(C)O2)Oc2ccc(cc2Cl)C1O (stereo not shown) [Vanc-57] | 4 | 0.20 (≈ 0.338 µg/mL) | 2 | 0.39 (≈ 0.658 µg/mL) | 1.56 (≈ 2.63 µg/mL) | 128 | 0.5 | 1.56 (≈ 2.63 µg/mL) | 12.5 (≈ 21.1 µg/mL) | 32 | 41 ± 12 | 6.3 ± 0.2 | 0.20 (≈ 0.338 µg/mL) | 4 | ≤0.05 | ≥32 | 1.56 (≈ 2.63 µg/mL) | 256 | 1.56 (≈ 2.63 µg/mL) | 64 | IC50 [4]: 3.7 ± 0.2 µM; IC50 [5]: 17 µM; MIC (E. faecalis VRE 29): 3.13 µM (≈ 5.28 µg/mL); MIC-fold improvement vs. vancomycin (E. faecalis VRE 29): 128; MIC-fold improvement vs. vancomycin (MRSA KS1): 8; MIC (MRSA KS1): 0.10 µM (≈ 0.169 µg/mL); MIC (S. aureus VISA/HIP5827): 0.39 µM (≈ 0.658 µg/mL); MIC-fold improvement vs. vancomycin (S. aureus VISA/HIP5827): 16
